According to patent publication US6984649B1, “Pyridine derivatives” (Bayer Aktiengesellschaft, priority 2000, dated 2006):
Where a name gives a salt, the structure may show the parent alone.

Molecular target: T1, human IKK-β (Homo sapiens, UniProt O14920)
T1 construct: A cDNA fragment encoding human IKK-β open reading frame was generated by PCR; His tag (from pcDNA3.1/His C); made in house; host or cells: Sf21 insect cells (baculovirus); substrate made in E. coli
T1 sequence (O14920 1-756): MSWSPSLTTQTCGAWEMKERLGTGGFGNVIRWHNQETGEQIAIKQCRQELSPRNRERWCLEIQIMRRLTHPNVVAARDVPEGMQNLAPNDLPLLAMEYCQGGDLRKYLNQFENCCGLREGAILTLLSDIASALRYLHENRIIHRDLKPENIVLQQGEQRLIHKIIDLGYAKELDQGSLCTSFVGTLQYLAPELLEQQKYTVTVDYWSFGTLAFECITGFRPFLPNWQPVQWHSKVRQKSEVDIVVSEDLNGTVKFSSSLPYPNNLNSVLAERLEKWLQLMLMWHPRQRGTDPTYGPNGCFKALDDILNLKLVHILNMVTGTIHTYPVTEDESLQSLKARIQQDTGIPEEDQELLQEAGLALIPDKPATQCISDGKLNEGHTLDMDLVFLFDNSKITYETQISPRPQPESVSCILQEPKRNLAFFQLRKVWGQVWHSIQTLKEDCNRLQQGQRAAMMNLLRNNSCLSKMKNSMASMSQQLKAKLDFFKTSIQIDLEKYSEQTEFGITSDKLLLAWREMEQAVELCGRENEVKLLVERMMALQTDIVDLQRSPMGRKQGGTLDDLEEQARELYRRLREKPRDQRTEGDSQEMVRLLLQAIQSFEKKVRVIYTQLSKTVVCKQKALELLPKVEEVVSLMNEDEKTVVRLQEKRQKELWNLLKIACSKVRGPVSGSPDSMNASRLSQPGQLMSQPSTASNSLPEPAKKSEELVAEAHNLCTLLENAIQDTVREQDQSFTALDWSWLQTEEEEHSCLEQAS
Assay: IKK-β kinase inhibitory assay
Assay type: biochemical
Conditions: compounds as yielded by solid phase synthesis, purity about 40 to 90%, read-out: In vitro activity grade (In vitro IC50)
Description: [IKK-β Kinase Inhibitory Assay]
(1) Preparation of IKK-β Kinase Protein.
• A cDNA fragment encoding human IKK-β open reading frame was generated by PCR with the use of a pair of primers designed from the published sequence (Woronicz J D et al. (1997) Science 278, 866-869). A template was obtained from Quickclone cDNA (Clontech) using Elongase™ Amplification kit (Life Technologies). The DNA fragments generated by PCR were gel-purified and subcloned into pBluescript. The cDNA fragment cloned in pBluescript was inserted into pcDNA3.1/His C KpnI/NotI, and transferred into pVL1393 SmaI/XbaI (Pharmingen) to construct a baculovirus transfer vector. Then the vector, together with the linearized baculovirus (BaculoGold™, Pharmingen) was used to transfect Sf21 cells (Invitrogen, San Diego, Calif.). Generated recombinant baculovirus was cloned and amplified in Sf21 cells, grown in TNM-FH insect cell medium (Life Technologies, Inc.) supplemented with 10% FCS, […] Gentamycin, 0.1% Pluronic F-68 (Life Technologies, Inc.) as suspension culture (200 ml in 1 L Erlenmeyer flask; 27° C.; 130 rpm). Sf21 cells were infected with this amplified virus with a multiplicity of infection of 5 following standard protocols (Crossen R, Gruenwald S (1997) Baculovirus Expression Vector System Instruction Manual, Pharmingen Corporation) and harvested 48 hrs later. The cells were lysed to obtain the produced chimeric protein of IKK-β kinase fused by histidine (His-tagged IKK-beta). (2) The Preparation of Purified GST-IκBα Fusion Proteins • An expression vector containing the nucleotide sequence encoding fusion protein of GST with amino acid residues 1 to 54 of IκBα under the control of an IPTG-inducible promoter was constructed. The expression vector was introduced in E. coli and the transformant was cultured and lysed to obtain a GST-IκBα fusion protein. Then the resulting GST-IκBα fusion protein was purified and biotinated for kinase assay. (3) The Measurement of IKK-β Kinase Activity • The 96-well format kinase assay of IKK-β were performed to test the inhibitory activity of the compounds of the present invention. First, 5 μl of a test compound was put in the presence of 2.5% dimethyl sulfoxide (DMSO) in each well in a U-bottomed 96-well plate (Falcon). For control wells of background (BG) and total phosphorylation (TP), 5 μl of 2.5% DMSO was put. Recombinant IKK-β (final 0.6 μg/ml) and bio-GST-IκBα (1-54) (final 0.2 μM) were diluted in 25 μl of 2×kinase buffer β (40 mM Tris-HCl, pH 7.6, 40 mM MgCl2, 40 mM β-glycerophosphate, 40 mM p-nitrophenylphosphate, 2 mM EDTA, 40 mM creatine phosphate, 2 mM DTT, 2 mM Na3VO4, 0.2 mg/ml BSA and 0.8 mM phenylmethylsulfonyl fluoride) and transferred to the 96-well plate. Bio-GST-IκBα (1-54) in 25 μl of 2×kinase buffer β without IKK-β was transferred to BG wells. Then 20 μl of 12.5 μM ATP, 62.5 μCi/ml [γ-^33P] ATP (Amersham Pharmacia Biotech) was added and the resulting mixture was incubated for 2 hrs at room temperature. The kinase reactions were terminated by the addition of 150 μl of termination buffer (100 mM EDTA, 1 mg/ml BSA, 0.2 mg NaN3). One hundred and fifty μl of the sample were transferred to a streptavidin-coated, white MTP (Steffens Biotechniche Analysen GmbH #08114E14.FWD) to capture the biotinylated substrates. After 1 hr of incubation, non-bound radioactivity was eliminated by washing the wells five times with 300 μl of washing buffer including 0.9% NaCl and 0.1% (w/v) Tween-20 with the use of a MW-96 plate washer (BioTec). The bound radioactivity was determined after the addition of 170 μl MicroScint-PS scintillation cocktail (Packard) using a TopCount scintillation counter. [Syk Tyrosine Kinase Inhibitory Assay for Selectivity] (1) Preparation of Syk Protein • A cDNA fragment encoding human Syk openreading frame was cloned from total RNA of human Burkitt's lymphoma B cell lines, Raji (American Type Culture Collection), with the use of RT-PCR method.

SMILES | IC50
Oc1cccc(OCC2CC2)c1-c1cc(C2CCCNC2)c2c(n1)NCOC2 (stereo not drawn) [Example 17-1, 3-(cyclopropylmethoxy)-2-[5-(3-piperidinyl)-1,4-dihydro-2H-pyrido[2,3-d][1,3]oxazin-7-yl]-phenol hydrochloride] | < 500 nM
Nc1nc(-c2ncccc2O)cc(C2CCCNC2)c1CO (stereo not drawn) [Example 11-3, 6′-amino-5′-(hydroxymethyl)-4′-3-piperidinyl)-2,2′-bipyridin-3-ol hydrochloride] | < 500 nM
Nc1nc(-c2ccccc2O)cc2c1C(=O)N1CCCC2C1 (stereo not drawn) [Example 8-1, 6-amino-4-(2-hydroxy-phenyl)-5,9-diaza-tricyclo[7.3.1.0^2,7]trideca-2(7),3,5-trien-8-one] | 500 to 2000 nM
CCOC(=O)NCc1c(C2CCCNC2)cc(-c2c(O)cccc2OCC2CC2)nc1N (stereo not drawn) [Example 23-2, ethyl [2-amino-6-[2-(cyclopropylmethoxy)-6-hydroxyphenyl]-4-(3-piperidinyl)-3-pyridinyl]methylcarbamate hydrochloride] | < 500 nM
O=C(O)c1cc2c(C3CCCNC3)cc(-c3c(O)cccc3OCC3CC3)nc2[nH]c1=O (stereo not drawn) [Example 30-1, 7-(2-cyclopropylmethoxy-6-hydroxy-phenyl)-2-oxo-5-piperidin-3-yl-1,2-dihydro[1,8]naphthyridine-3-carboxylic acid hydrochloride] | < 500 nM
CC(=O)Nc1cc2c(C3CCCNC3)cc(-c3c(O)cccc3OCC3CC3)nc2[nH]c1=O (stereo not drawn) [Example 29-3, N-[7-[2-(cyclopropylmethoxy)-6-hydroxyphenyl]-2-oxo-5-(3-piperidinyl)-1,2-dihydro-1,8-naphthyridin-3-yl]acetamide hydrochloride] | < 500 nM
CNC(=O)c1c(C2CCCNC2)cc(-c2c(O)cccc2OCC2CC2)nc1N (stereo not drawn) [Example 8-3, 2-amino-6-[2-(cyclopropylmethoxy)-6-hydroxyphenyl]-N-methyl-4-(3-piperidinyl)nicotinamide hydrochloride] | < 500 nM
O=C1NCc2c(C3CCNCC3)cc(-c3c(O)cccc3OCC3CC3)nc2N1 [Example 22-3, 7-[2-(cyclopropylmethoxy)-6-hydroxyphenyl]-5-(4-piperidinyl)-3,4-dihydro-1H-pyrido[2,3-d]pyrimidin-2-one hydrochloride] | < 500 nM
Nc1nc(-c2ccccc2O)cc2c1CN[C@@H]2Cc1ccccc1 [Example 20-2, 2-[(1R)-4-amino-1-benzyl-2,3-dihydro-1H-pyrrolo[3,4-d]pyridin-6-yl]phenol hydrochloride] | < 500 nM
CCCNC(=O)c1cc2c(C3CCCNC3)cc(-c3c(O)cccc3OCC3CC3)nc2[nH]c1=O (stereo not drawn) [Example 31-1, 7-[2-(cyclopropylmethoxy)-6-hydroxyphenyl]-2-oxo-5-(3-pipedinyl)-N-propyl-1,2-dihydro-1,8-naphthyridine-3-carboxamide] | < 500 nM
N#Cc1c(N2CCOCC2)cc(-c2ccccc2O)nc1N [Example 34-1, 2-amino-6-(2-hydroxyphenyl)-4-(4-morpholinyl)nicotinonitrile] | 500 to 2000 nM
Nc1nc(-c2c(O)cccc2OCc2ccccc2)cc2c1CN1CCCC2C1 (stereo not drawn) [Example 20-1, 2-(6-amino-5,9-diazatricyclo[7.3.1.02,7]trideca-2,4,6-trien-4-yl)-3-(benzyloxy)phenol hydrochloride] | 500 to 2000 nM
CNC1CCCC(c2cc(-c3ccccc3O)nc(N)c2C#N)C1 (stereo not drawn) [Example 1-5, 2-amino-6-(2-hydroxyphenyl)-4-[3-methylamino]cyclohexyl]nicotinonitrile hydrochloride] | < 500 nM
CN1CCCC(c2cc(-c3c(O)cccc3OCC3CC3)nc(N)c2C#N)C1 (stereo not drawn) [Example 3-1, 2-amino-6-[2-(cyclopropylmethoxy)-6-hydroxyphenyl]-4-(1-methyl-3-piperidinyl)nicotinonitrile] | < 500 nM

Other lines, results leading:

IC50 | SMILES
< 500 nM | Nc1nc(-c2ccccc2O)cc(C2CCCNC2)c1C(=O)O (stereo not drawn) [Example 9-2, 2-amino-6-(2-hydroxyphenyl)-4-(3-piperidinyl)nicotinic acid hydrochloride]
< 500 nM | COCc1c(C2CCCNC2)cc(-c2ccccc2O)nc1N (stereo not drawn) [Example 13-1, 2-[6-amino-5-(methoxymethyl)-4-(3-piperidinyl)-2-pyridinyl]phenol hydrochloride]
< 500 nM | CC(O)c1c(C2CCCNC2)cc(-c2ccccc2O)nc1N (stereo not drawn) [Example 15-1, 2-[6-amino-5-(1-hydroxyethyl)-4-(3-piperidinyl)-2-pyridinyl]phenol hydrochloride]
2000 to 10000 nM | CCCNc1nc(-c2ccccc2O)cc(C2CCCNC2)c1C#N (stereo not drawn) [Example 4-2, 6-(2-hydroxyphenyl)-4-(3-piperidinyl)-2-(propylamino)nicotinonitrile hydrochloride]
< 500 nM | N#Cc1c(C2CCCNC2)cc(-c2ccccc2O)nc1NCc1ccccc1 (stereo not drawn) [Example 4-1, 2-(benzylamino)-6-(2-hydroxyphenyl)-4-(3-piperidinyl)nicotinonitrile hydrochloride]
< 500 nM | O=c1[nH]c(=O)c2c(C3CCCNC3)cc(-c3ccccc3O)nc2[nH]1 (stereo not drawn) [Example 7-2, 7-(2-hydroxyphenyl)-5-(3-piperidinyl)pyrido[2,3-d]pyrimidine-2,4(1H,3H)-dione hydrochloride]
< 500 nM | CC(C)(C)OC(=O)c1c(C2CCCNC2)cc(-c2ccccc2O)nc1N (stereo not drawn) [Example 9-1, tert-butyl 2-amino-6-(2-hydroxyphenyl)-4-(3-piperidinyl)nicotinate hydrochloride]
500 to 2000 nM | CNC(=O)c1c(C2CCCNC2)cc(-c2ccccc2O)nc1N (stereo not drawn) [Example 8-2, 2-amino-6-(2-hydroxyphenyl)-N-methyl-4-(3-piperidinyl)nicotinamide hydrochloride]
> 10000 nM | CC(=O)Nc1n[nH]c2nc(-c3ccccc3O)cc(C3CCCNC3)c12 (stereo not drawn) [Example 5-2, N-[6-(2-hydroxyphenyl)-4-(3-piperidinyl)-1H-pyrazolo[3,4-b]pyridin-3-yl]acetamide hydrochloride]
> 10000 nM | N#Cc1c(C2CCCNC2)cc(-c2ccccc2O)nc1Nc1ccccc1 (stereo not drawn) [Example 4-4, hydrochloride]
